From patent publication US20160200789A1, “IL4 CONJUGATED TO ANTIBODIES AGAINST EXTRACELLULAR MATRIX COMPONENTS” (PHILOGEN S.P.A., priority 2013, published 2016) come the findings set out here.

Positions count from the first letter of the chain named. Names and notes keep the numbering of the source.

For one data set, the system named is Fibrosarcoma Wehi-164. The data set can be described thus: Therapy of Wehi-164 fibrosarcoma-bearing mice. Format: in vivo, mouse. The note with it: 4 cycles i.v. every 48 h, equimolar doses. The procedure: Fibrosarcoma Wehi-164 exponentially growing cells were harvested, repeatedly washed and re-suspended in serum-free medium prior to injection. The tumor cells were injected subcutaneously (5×10^6) in the right flank of Balb/c mice. Tumor weights (mg=mm^3) were calculated as follows: (length [mm]×width^2 [mm^2])/2.
Treatment started when tumors reached approximately 100 mg. Mice received 4 cycles of therapy, every 48 h starting from day 5 after tumor cell injection. L19-IL4 (SEQ ID NO:64) was administered i.v. at the dose of 130 μg/mouse; equimolar amounts of KSF-IL4 (130 μg/mouse) (SEQ ID NO:44), KSF-IL10 (150 μg/mouse) (SEQ ID NO:65) and L19-IL10 (150 μg/mouse) (SEQ ID NO:66) were administered. Control mice received sterile vehicle solution (PBS). The results are shown in FIG. 16 (mean tumour weight over time). The number of mice in each treatment group was 3-4.

Data set [1] addresses T1, EDA domain of fibronectin (Homo sapiens, UniProt P02751).
T1 construct: surface plasmon analysis (BIAcore) on an EDA antigen-coated sensor chip
Briefly: Surface plasmon analysis (BIAcore) on EDA antigen-coated sensor chip. The data set is classed as binding. An excerpt:
The fusion protein was expressed and purified to homogeneity as described for F8-IL4 above.

The test system of data set [2] is tumour neovascular structures in murine F9, CT26 and A20 tumours. Briefly: Immunofluorescence on untreated tumour sections. Set-up: species or system mouse. The note with it: biotinylated protein on F9, CT26 and A20 tumour sections. The source says: For detection streptavidin-Alexa Fluor 488 and anti-rat-Alexa Fluor 594 (Invitrogen) were used. Slides were mounted with fluorescent mounting medium (Dako) and analyzed with an Axioskop2 mot plus microscope (Zeiss).

A further data set concerns A20 lymphoma. The data set can be described thus: Therapy studies in A20 tumour-bearing mice. Conditions: A20, F8-IL4 vs KSF-IL4 study.
A further data set concerns CT26 colon carcinoma. The data set can be described thus: Therapy studies in CT26 tumour-bearing mice.
Data set [3] has as its system endometriotic lesions in Balb/c mice. The data set can be described thus: Endometriosis model in Balb/c mice. The data set is classed as in vivo, mouse. Conditions: 200 μg/mouse i.v. days 1, 4, 7; day 15; vs PBS. As for the experimental part:
Endometriosis was induced in sixty eight-week old female Balb/c mice according to the protocol described by Somigliana et al. (1999).
One day after the implantation of endometrial tissue, pairs of mice (who received tissue from the same donor) were treated either with intravenous (i.v.) injections of F8-murine IL4 (200 μg/mouse; SEQ ID NO: 21) or PBS (group 1); or with i.v. injections of KSF-murine IL4 (200 μg/mouse; SEQ ID NO: 44) or PBS (group 2). The same treatment was repeated at days 4 and 7. Mice were sacrificed at day 15.

For data set [4], the system named is F9 teratocarcinoma. The data set can be described thus: Quantitative biodistribution in F9 tumour-bearing mice. Format: in vivo, mouse. The note with it: 15 μg radioiodinated protein i.v., 24 hours. As for the experimental part: The in vivo targeting performance was assessed by quantitative biodistribution where 15 μg of radioiodinated fusion protein was injected i.v. into the lateral tail vein of immunocompetent 11-12 week old female Sv129Ev mice (obtained from Charles River [Germany]), bearing sub-cutaneously grafted F9 tumours (for labelling protocol, see (Pasche et al. 2011)). Mice were sacrificed 24 hours after injection, organs were excised, weighed and radioactivity was measured using a Packard Cobra γ counter.

For a further data set, the system named is CTLL2 cells. The data set can be described thus: CTLL2 cell proliferation bioactivity assay. Format: cell-based. Conditions: 24 h; for EC50: CTLL2 cells, 20000 cells/well. As for the experimental part:
The biological activity of murine IL4 was determined by its ability to stimulate the proliferation of CTLL2 cells. […] After incubation at 37° C. for 24 h, cell proliferation was determined with Cell Titer Aqueous One Solution (Promega).

Data set [5] deals with F9 teratocarcinoma. Briefly: Biodistribution of F8-hIL4 and F8-hIL4-N284Q in F9 tumour-bearing mice. Format: in vivo, mouse. Conditions: 10 μg radioiodinated antibody i.v., 24 hours. As for the experimental part: 11-12 weeks old female 129/SvEv mice were obtained from Charles River (Sulzfeld, Germany). Tumor cells were implanted subcutaneously in the flank of the mice using 25×10^6 cells.
The in vivo targeting performance of F8-hIL4, and its unglycosylated variant F8-hIL4-N284Q were evaluated in quantitative biodistribution studies. The antibodies were radioiodinated using […] and Chloramine T hydrate according to the protocol of Pasche et al. 2011. 10 μg of each radioiodiated antibody were injected into the lateral tail vein of the mice. Injected mice were sacrificed 24 hours after injection. Organs were then excised and radioactivity was counted in Cobra gamma counter (Packard, Meriden, Conn.).

Data set [6] deals with F9 teratocarcinoma. The data set can be described thus: Therapy studies in F9 teratocarcinoma-bearing mice. The note with it: mouse, in vivo. Format: in vivo, mouse. As for the experimental part: In a dose finding study, F9 tumour-bearing mice were randomly grouped (n=5) and injected intravenously (i.v.) into the lateral tail vein when tumours were clearly palpable. […] The therapeutic antibodies were all dissolved in phosphate buffered saline (PBS) and this buffer was also used in the negative control treatment groups. The mice were monitored daily and tumour volume was measured with a calliper (volume=length×width^2×0.5).

The term EC50 denotes the midpoint of the concentration-response curve. Read a high EC50 as a need for much substance.

T1 sequence (P02751 1727-1814 limits assumed): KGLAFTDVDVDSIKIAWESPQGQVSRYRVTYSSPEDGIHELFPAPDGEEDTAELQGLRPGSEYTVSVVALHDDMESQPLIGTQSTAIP
Description for A20 lymphoma: (§1) Data represent mean tumour volumes (±SEM), n=5 mice per group. […] Data represent mean tumour volumes (±SEM), n=5 mice per group.
Differences in tumor volume, % ID/g and Tumor-to-blood ratio between therapeutic groups were compared using Graphpad Prism's repeated measures (mixed model) ANOVA analysis.
For this, as well as the other experiments described below, F9 teratocarcinoma (CRL-1720; ATCC, Molsheim Cedex, France), CT26 colon carcinoma (CRL-2638; ATCC, Molsheim Cedex, France) and A20 lymphoma (TIB-208; ATCC, Molsheim Cedex, France) were grown according to the supplier's protocol and tumour cells implanted subcutaneously in the flank using 25×10^6 cells (F9), 2×10^6 cells (CT26) or 8×10^6 cells (A20). F9 teratocarcinoma cells were implanted into 129/SvEv mice (Charles River, Sulzfeld, Germany), CT26 colon carcinoma cells were implanted into Balb/c mice (Elevage Janvier, Le Genest-St-Isle, France) and A20 lymphoma cells were implanted into Balb/c mice (Elevage Janvier, Le Genest-St-Isle, France). Mice were sacrificed when tumour volumes reached a maximum of 2000 mm^3.
Description for CT26 colon carcinoma: as §1
In the description of the below experiments, data are expressed as the mean (±SEM). Differences in tumor volume, % ID/g and Tumor-to-blood ratio between therapeutic groups were compared using Graphpad Prism's repeated measures (mixed model) ANOVA analysis.
Mice were sacrificed when tumour volumes reached a maximum of 2000 mm^3.
In order to study a second immunocompetent mouse model of cancer, the inventors focused on Balb/c mice (obtained from Elevage Janvier [France]) bearing subcutaneous CT26 tumours of colorectal origin.

With “KSF-IL10: KSF antibody (hen egg lysozyme) conjugated to IL10; untargeted IL10”, the “therapeutic activity (tumour weight)” value with Fibrosarcoma Wehi-164 is “do not promote any significant therapeutic activity”.

For “KSF-IL4: antibody KSF (specific to hen egg lysozyme, negative control) in diabody format fused to murine interleukin 4 [reference compound]”, in data set [1], the “affinity for the cognate antigen” value was “retained a high-affinity for the cognate antigen”. For the same molecule, the “recognition of tumour neovascular structures” value in [2] was “not”. Further, the “statistical significance, tumour volume vs PBS” value in the data set with A20 lymphoma is listed as “not statistically significant”. Moreover, the “therapeutic activity (tumour weight)” value in the data set with Fibrosarcoma Wehi-164 is reported as “do not promote any significant therapeutic activity”. The therapeutic performance entry in the data set on CT26 colon carcinoma (90 μg i.v. every 48 h) is listed as “not better than saline”. For the same molecule, the “statistical significance, tumour volume vs PBS” value in the data set on CT26 colon carcinoma (CT26, F8-IL4 vs KSF-IL4 study) is on record as “not statistically significant”. Moreover, in [3], the “number of the endometriotic lesions” value is given as “did not have a significant effect” and the “volume of the endometriotic lesions” value was “did not have a significant effect”. For the same molecule, the “accumulation at the tumour site (% ID/g)” value in the data set with F9 teratocarcinoma [4] is given as “not observed”. In the data set on CTLL2 cells, the response was half-maximal at 0.02 nM (EC50). Further, the biological cytokine activity entry in the data set with CTLL2 cells (CTLL2 proliferation) is “comparable to that of recombinant murine IL4”.

The molecule “recombinant IL4: recombinant murine IL4 (eBioscience)” gave an EC50 with CTLL2 cells of 0.028 nM.

B1: F8-hIL4: F8 diabody fused to human IL4, glycosylated (protein)
chain: EVQLLESGGGLVQPGGSLRLSCAASGFTFSLFTMSWVRQAPGKGLEWVSAISGSGGSTYYADSVKGRFTISRDNSKNTLYLQMNSLRAEDTAVYYCAKSTHLYLFDYWGQGTLVTVSSGGSGGEIVLTQSPGTLSLSPGERATLSCRASQSVSMPFLAWYQQKPGQAPRLLIYGASSRATGIPDRFSGSGSGTDFTLTISRLEPEDFAVYYCQQMRGRPPTFGQGTKVEIKSSSSGSSSSGSSSSGHKCDITLQEIIKTLNSLTEQKTLCTELTVTDIFAASKNTTEKETFCRAATVLRQFYSHHEKDTRCLGATAQQFHRHKQLIRFLKRLDRNLWGLAGLNSCPVKEANQSTLENFLERLKTIMREKYSKCSS
modifications: Synthetic sequence Amino acid sequence of F8 - (human) IL4 of PCT/EP2014/053998
notes: F8 diabody fused to human IL4, glycosylated
For B1, the “accumulation at the tumor site (% ID/g)” value in the data set with F9 teratocarcinoma [5] is listed as “comparable preferential accumulation at the tumor site”.

B2: F8-hIL4-N284Q: unglycosylated F8-human IL4 mutant, asparagine 284 substituted with glutamine (protein)
chain: B1 chain with N284Q
modifications: Synthetic sequence Amino acid sequence of F8 - (human) IL4 N284Q mutant of PCT/EP2014/053998
notes: unglycosylated F8-human IL4 mutant, asparagine 284 substituted with glutamine
As for B2, the “accumulation at the tumor site (% ID/g)” value with F9 teratocarcinoma [5] is listed as “comparable preferential accumulation at the tumor site”.

B3: F8-IL12: IL12-based immunocytokine: murine IL12 fused to single chain F8 diabody (protein)
chain: MWELEKDVYVVEVDWTPDAPGETVNLTCDTPEEDDITWTSDQRHGVIGSGKTLTITVKEFLDAGQYTCHKGGETLSHSHLLLHKKENGIWSTEILKNFKNKTFLKCEAPNYSGRFTCSWLVQRNMDLKFNIKSSSSSPDSRAVTCGMASLSAEKVTLDQRDYEKYSVSCQEDVTCPTAEETLPIELALEARQQNKYENYSTSFFIRDIIKPDPPKNLQMKPLKNSQVEVSWEYPDSWSTPHSYFSLKFFVRIQRKKEKMKETEEGCNQKGAFLVEKTSTEVQCKGGNVCVQAQDRYYNSSCSKWACVPCRVRSGGGGSGGGGSGGGGSRVIPVSGPARCLSQSRNLLKTTDDMVKTAREKLKHYSCTAEDIDHEDITRDQTSTLKTCLPLELHKNESCLATRETSSTTRGSCLPPQKTSLMMTLCLGSIYEDLKMYQTEFQAINAALQNHNHQQIILDKGMLVAIDELMQSLNHNGETLRQKPPVGEADPYRVKMKLCILLHAFSTRVVTINRVMGYLSSAGSADGGEVQLLESGGGLVQPGGSLRLSCAASGFTFSLFTMSWVRQAPGKGLEWVSAISGSGGSTYYADSVKGRFTISRDNSKNTLYLQMNSLRAEDTAVYYCAKSTHLYLFDYWGQGTLVTVSSGGSGGEIVLTQSPGTLSLSPGERATLSCRASQSVSMPFLAWYQQKPGQAPRLLIYGASSRATGIPDRFSGSGSGTDFTLTISRLEPEDFAVYYCQQMRGRPPTFGQGTKVEIKSSSSGSSSSGSSSSGEVQLLESGGGLVQPGGSLRLSCAASGFTFSLFTMSWVRQAPGKGLEWVSAISGSGGSTYYADSVKGRFTISRDNSKNTLYLQMNSLRAEDTAVYYCAKSTHLYLFDYWGQGTLVTVSSGGSGGEIVLTQSPGTLSLSPGERATLSCRASQSVSMPFLAWYQQKPGQAPRLLIYGASSRATGIPDRFSGSGSGTDFTLTISRLEPEDFAVYYCQQMRGRPPTFGQGTKVEIK
modifications: Synthetic sequence Amino acid sequence of (murine)IL12-F8-F8 of PCT/EP2014/053998
notes: IL12-based immunocytokine: murine IL12 fused to single chain F8 diabody
For B3, the single-agent therapeutic activity result with F9 teratocarcinoma [6] was “potent single-agent therapeutic activity”.

B4: L19-IL4: L19 diabody (anti-EDB of fibronectin) fused to murine IL4 (protein)
chain: EVQLLESGGGLVQPGGSLRLSCAASGFTFSSFSMSWVRQAPGKGLEWVSSISGSSGTTYYADSVKGRFTISRDNSKNTLYLQMNSLRAEDTAVYYCAKPFPYFDYWGQGTLVTVSSGGSGGEIVLTQSPGTLSLSPGERATLSCRASQSVSSSFLAWYQQKPGQAPRLLIYYASSRATGIPDRFSGSGSGTDFTLTISRLEPEDFAVYYCQQTGRIPPTFGQGTKVEIKSSSSGSSSSGSSSSGHIHGCDKNHLREIIGILNEVTGEGTPCTEMDVPNVLTATKNTTESELVCRASKVLRIFYLKHGKTPCLKKNSSVLMELQRLFRAFRCLDSSISCTMNESKSTSLKDFLESLKSIMQMDYS
modifications: Synthetic sequence Amino acid sequence of the L19-murine IL4 conjugate of PCT/EP2014/053998
Take B4: the “therapeutic activity (tumour weight)” value in the data set with Fibrosarcoma Wehi-164 is reported as “shows therapeutic activity”.
